Assay results from US20120309739A1, “AKT / PKB INHIBITORS” (ALMAC DISCOVERY LIMITED, priority 2009, published 2012).
Counter-ions that a name gives are not always drawn.

What was measured:
Type in all cases: biochemical
[1] = molecular target: T1, AKT1 (Homo sapiens, UniProt P31749); assay: AKT Kinase Assay (IMAP fluorescent polarisation) vs AKT1; details: activated AKT1, FAM Crosstide substrate
T1 construct: purchased SignalChem
Method: (§1) Testing of the compounds was performed using an AKT Kinase Assay:
(§2) Activated AKT isoforms 1, 2 and 3 were assayed utilising a 5′ FAM Crosstide (Seq. GRPRTSSFAEG-OH). The extent of kinase phosphorylation was determined by fluorescent polarisation using IMAP progressive binding reagent, which introduces binding beads which allow the reagent to specifically bind to phosphate residues via covalent co-ordination complex bonds.
(§3) iMAP binding solution stops Crosstide/kinase interaction and specifically binds phosphorylated substrates. The degree of phosphorylation is determined by fluorescent polarisation (excitation 485 nm; emission 528 nm) or the reduction in speed of rotation of the excited substrate.
(§4) The following materials were used in the assay: • a) Activated AKT isoforms (SignalChem.) dissolved in Complete Reaction buffer at a pre-determined concentration selected so that the assay was carried out in the linear range. • b) AKT substrate peptide: FAM Crosstide (R7110) Molecular Devices, diluted in complete reaction buffer. • c) iMAP Progressive Screening Express Kit (R8127) Molecular Devices • d) Complete Reaction Buffer containing 0.1% BSA, 10 mM Tris-HCl, 10 mM MgCl2, 0.05% NaN3 and 0.01% phosphate free BSA, 1 mM DTT • e) Progressive Binding Solution containing 75% Buffer A, 25% Buffer B and low volume Binding Reagent which contains the binding entity for the assay • f) ATP diluted in complete reaction buffer • g) Black polystyrene 384 well assay plates (Nunc). • h) Biotek Synergy 4 Hybrid Plate reader.
(§5) 50 μl of test compound was dissolved in DMSO (Sigma Aldrich) and serially diluted in complete reaction buffer to give a fourteen point half log dose response and plated into 384 well black plates. The compound was incubated at room temperature with activated AKT isoform ([…]) at the pre-determined concentration, for 45 minutes.
(§6) […] of ATP solution mixed with 2.5 μl of AKT substrate peptide (FAM Crosstide (R7110) Molecular Devices) were dispensed into each well and the plate centrifuged at 1000 rpm for 20 seconds to ensure homogenous mixing of reagents. The reaction mix was incubated in the dark for one hour at room temperature.
(§7) The kinase reaction was stopped by the addition of Progressive Binding Solution and the mixture allowed to equilibrate for one hour in the dark, at room temperature.
(§8) The fluorescent polarisation generated in each well was determined using a […] Synergy 4 Hybrid plate reader. In brief, each reaction solution was excited at 485 nm with the emission measured at 528 nm in both the parallel and perpendicular pathway.
(§9) The polarisation value generated in each well was calculated by Gen5 software (Biotek) and the % inhibition of kinase activity compared to vehicle control was calculated via GraphPad Prism. IC50 values for each compound were calculated by non-linear regression analysis using Prism software.
(§10) All plates were internally controlled by two methods. Firstly, by calculating the signal:noise ratio; based on kinase polarisation without inhibitor and polarisation generated by complete reaction buffer in the absence of activated kinase. Secondly by determining IC50 values generated by known inhibitors of the AKT isoforms.

[2] = molecular target: T2, AKT2 (Homo sapiens, UniProt P31751); assay: AKT Kinase Assay (IMAP fluorescent polarisation) vs AKT2; details: activated AKT2, FAM Crosstide substrate
T2 construct: purchased SignalChem
Method: as §1, §2, §3, §4, §5, §6, §7, §8, §9, §10

[3] = molecular target: T3, AKT3 (Homo sapiens, UniProt Q9Y243); assay: AKT Kinase Assay (IMAP fluorescent polarisation) vs AKT3; details: activated AKT3, FAM Crosstide substrate
T3 construct: purchased SignalChem
Method: as §1, §2, §3, §4, §5, §6, §7, §8, §9, §10

T3 sequence (Q9Y243 whole entry): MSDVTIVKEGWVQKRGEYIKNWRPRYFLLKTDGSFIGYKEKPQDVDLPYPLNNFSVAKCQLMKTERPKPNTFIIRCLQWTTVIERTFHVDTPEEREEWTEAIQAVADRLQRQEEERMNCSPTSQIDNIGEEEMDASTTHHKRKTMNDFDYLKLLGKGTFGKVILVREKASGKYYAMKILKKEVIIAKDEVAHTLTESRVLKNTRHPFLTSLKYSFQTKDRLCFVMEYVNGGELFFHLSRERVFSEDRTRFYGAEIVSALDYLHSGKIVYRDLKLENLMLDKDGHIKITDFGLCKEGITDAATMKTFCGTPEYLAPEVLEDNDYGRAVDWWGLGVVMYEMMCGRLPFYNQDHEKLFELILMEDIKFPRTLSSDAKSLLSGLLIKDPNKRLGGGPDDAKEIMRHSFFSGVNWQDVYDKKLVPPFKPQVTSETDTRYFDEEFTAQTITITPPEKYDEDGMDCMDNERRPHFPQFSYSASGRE
T1 sequence (P31749 whole entry): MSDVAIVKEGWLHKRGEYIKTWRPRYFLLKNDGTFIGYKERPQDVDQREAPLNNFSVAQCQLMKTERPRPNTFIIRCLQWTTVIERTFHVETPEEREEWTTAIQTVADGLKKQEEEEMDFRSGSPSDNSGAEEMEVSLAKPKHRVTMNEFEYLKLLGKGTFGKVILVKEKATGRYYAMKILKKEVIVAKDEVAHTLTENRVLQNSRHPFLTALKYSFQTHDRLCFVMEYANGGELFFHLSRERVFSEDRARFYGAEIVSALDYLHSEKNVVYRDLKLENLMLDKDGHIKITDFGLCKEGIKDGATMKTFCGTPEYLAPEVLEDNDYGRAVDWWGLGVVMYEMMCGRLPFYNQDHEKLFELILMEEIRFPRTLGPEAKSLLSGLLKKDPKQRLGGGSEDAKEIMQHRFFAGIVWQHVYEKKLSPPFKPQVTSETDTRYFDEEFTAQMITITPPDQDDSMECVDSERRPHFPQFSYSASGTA
T2 sequence (P31751 whole entry): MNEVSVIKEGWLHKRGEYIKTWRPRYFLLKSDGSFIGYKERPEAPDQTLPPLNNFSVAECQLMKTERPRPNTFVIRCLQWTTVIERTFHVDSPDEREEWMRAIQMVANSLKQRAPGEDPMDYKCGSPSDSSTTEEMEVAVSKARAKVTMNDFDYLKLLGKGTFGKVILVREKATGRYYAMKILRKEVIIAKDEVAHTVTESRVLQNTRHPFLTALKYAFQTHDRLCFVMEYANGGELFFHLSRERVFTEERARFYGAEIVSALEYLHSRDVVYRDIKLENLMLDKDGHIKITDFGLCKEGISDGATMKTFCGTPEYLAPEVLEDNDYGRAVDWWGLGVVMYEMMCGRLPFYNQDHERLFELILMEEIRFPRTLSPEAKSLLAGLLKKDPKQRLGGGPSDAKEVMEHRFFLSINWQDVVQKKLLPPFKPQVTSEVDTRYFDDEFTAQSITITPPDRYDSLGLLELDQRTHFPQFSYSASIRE

Row | SMILES | IC50 [1] | IC50 [2] | IC50 [3]
1 | Cn1c(N2CCC(O)CC2)nc2oc(-c3ccc(C4(N)CCC4)cc3)c(-c3ccccc3)c2c1=O [Example 59, 6-(4-(1-Aminocyclobutyl)phenyl)-2-(4-hydroxypiperidin-1-yl)-3-methyl-5-phenylfuro[2,3-d]pyrimidin-4(3H)-one hydrochloride] | 100 to 1000 nM | ≤ 100 nM | 1000 to 10000 nM
2 | CNC(=O)CNc1nc2oc(-c3ccc(C4(N)CCC4)cc3)c(-c3ccccc3)c2c(=O)n1C [Example 60, 2-((6-(4-(1-Aminocyclobutyl)phenyl)-3-methyl-4-oxo-5-phenyl-3,4-dihydrofuro[2,3-d]pyrimidin-2-yl)amino)-N-methylacetamide hydrochloride] | 1000 to 10000 nM | 100 to 1000 nM | > 10000 nM
3 | Cn1c(N2CC(O)C2)nc2oc(-c3ccc(C4(N)CCC4)cc3)c(-c3ccccc3)c2c1=O [Example 61, 6-(4-(1-Aminocyclobutyl)phenyl)-2-(3-hydroxyazetidin-1-yl)-3-methyl-5-phenylfuro[2,3-d]pyrimidin-4(3H)-one] | 100 to 1000 nM | 100 to 1000 nM | 1000 to 10000 nM
4 | C[C@@H](O)CNc1nc2oc(-c3ccc(C4(N)CCC4)cc3)c(-c3ccccc3)c2c(=O)n1C [Example 62, (R)-6-(4-(1-Aminocyclobutyl)phenyl)-2-((2-hydroxypropyl)amino)-3-methyl-5-phenylfuro[2,3-d]pyrimidin-4(3H)-one] | 100 to 1000 nM | 100 to 1000 nM | 1000 to 10000 nM
5 | Cn1c(NCC(N)=O)nc2oc(-c3ccc(C4(N)CCC4)cc3)c(-c3ccccc3)c2c1=O [Example 63, 2-((6-(4-(1-Aminocyclobutyl)phenyl)-3-methyl-4-oxo-5-phenyl-3,4-dihydrofuro[2,3-d]pyrimidin-2-yl)amino)acetamide] | 100 to 1000 nM | 100 to 1000 nM | > 10000 nM
6 | Cn1c(NCCO)nc2oc(-c3ccc(C4(N)CCC4)cc3)c(-c3ccccc3)c2c1=O [Example 64, 6-(4-(1-Aminocyclobutyl)phenyl)-2-(2-hydroxyethylamino)-3-methyl-5-phenylfuro[2,3-d]pyrimidin-4(3H)-one hydrochloride] | ≤ 100 nM | 100 to 1000 nM | 1000 to 10000 nM
7 | CNc1nc2oc(-c3ccc(C4(N)CCC4)cc3)c(-c3ccccc3)c2c(=O)n1C [Example 65, 6-(4-(1-Aminocyclobutyl)phenyl)-3-methyl-2-(methylamino)-5-phenylfuro[2,3-d]pyrimidin-4(3H)-one hydrochloride] | 100 to 1000 nM | 100 to 1000 nM | 1000 to 10000 nM
8 | Cn1cnc2oc(-c3ccc(C4(N)CCC4)cc3)c(-c3ccccc3)c2c1=O [Example 66, 6-(4-(1-Aminocyclobutyl)phenyl)-3-methyl-5-phenylfuro[2,3-d]pyrimidin-4(3H)-one] | 100 to 1000 nM | 100 to 1000 nM | > 10000 nM
9 | COCCn1c(SC)nc2oc(-c3ccc(C4(N)CCC4)cc3)c(-c3ccccc3)c2c1=O [Example 67, 6-(4-(1-Aminocyclobutyl)phenyl)-3-(2-methoxyethyl)-2-(methylthio)-5-phenylfuro[2,3-d]pyrimidin-4(3H)-one, HCl] | 100 to 1000 nM | ≤ 100 nM | 100 to 1000 nM
10 | CNc1nc(SC)nc2oc(-c3ccc(C4(N)CCC4)cc3)c(-c3ccccc3)c12 [Example 68, 6-(4-(1-Aminocyclobutyl)phenyl)-N-methyl-2-(methylthio)-5-phenylfuro[2,3-d]pyrimidin-4-amine, HCl] | 100 to 1000 nM | 100 to 1000 nM | 100 to 1000 nM
11 | CNc1nc2oc(-c3ccc(C4(N)CCC4)cc3)c(-c3ccccc3)c2c(=O)n1CCOC [Example 69, 6-(4-(1-Aminocyclobutyl)phenyl)-3-(2-methoxyethyl)-2-(methylamino)-5-phenylfuro[2,3-d]pyrimidin-4(3H)-one, HCl] | 1000 to 10000 nM | 100 to 1000 nM | > 10000 nM
12 | CN(C)c1nc(NCCO)nc2oc(-c3ccc(C4(N)CCC4)cc3)c(-c3ccccc3)c12 [Example 70, 2-(6-(4-(1-Aminocyclobutyl)phenyl)-4-(dimethylamino)-5-phenylfuro[2,3-d]pyrimidin-2-ylamino)ethanol, HCl] | 1000 to 10000 nM | 1000 to 10000 nM | > 10000 nM
13 | NC1(c2ccc(-c3oc4nc(NCCO)nc(N5CCOCC5)c4c3-c3ccccc3)cc2)CCC1 [Example 71, 2-((6-(4-(1-Aminocyclobutyl)phenyl)-4-morpholino-5-phenylfuro[2,3-d]pyrimidin-2-yl)amino)ethanol] | 1000 to 10000 nM | 1000 to 10000 nM | > 10000 nM

Second part, the compound after the results:

Row | IC50 [1] | IC50 [2] | IC50 [3] | SMILES
14 | 100 to 1000 nM | 100 to 1000 nM | 1000 to 10000 nM | Cc1nc(NCCO)nc2oc(-c3ccc(C4(N)CCC4)cc3)c(-c3ccccc3)c12 [Example 72, 2-((6-(4-(1-Aminocyclobutyl)phenyl)-4-methyl-5-phenylfuro[2,3-d]pyrimidin-2-yl)amino)ethanol]
15 | 100 to 1000 nM | 100 to 1000 nM | > 10000 nM | NC1(c2ccc(-c3oc4nc(NCCO)nc(C(F)(F)F)c4c3-c3ccccc3)cc2)CCC1 [Example 73, 2-((6-(4-(1-Aminocyclobutyl)phenyl)-5-phenyl-4-(trifluoromethyl)furo[2,3-d]pyrimidin-2-yl)amino)ethanol]
16 | 1000 to 10000 nM | 1000 to 10000 nM | > 10000 nM | CSc1nc(C(F)(F)F)c2c(-c3ccccc3)c(-c3ccc(C4(N)CCC4)cc3)oc2n1 [Example 74, 1-(4-(2-(Methylthio)-5-phenyl-4-(trifluoromethyl)furo[2,3-d]pyrimidin-6-yl)phenyl)cyclobutanamine hydrochloride]
17 | 1000 to 10000 nM | 1000 to 10000 nM | > 10000 nM | CSc1nc(I)c2c(-c3ccccc3)c(-c3ccc(C4(N)CCC4)cc3)oc2n1 [Example 75, 1-(4-(4-Iodo-2-(methylthio)-5-phenylfuro[2,3-d]pyrimidin-6-yl)phenyl)cyclobutanamine]
18 | ≤ 100 nM | ≤ 100 nM | 1000 to 10000 nM | NC1(c2ccc(-c3oc4nc(NCCO)[nH]c(=O)c4c3-c3ccccc3)cc2)CCC1 [Example 76, 6-(4-(1-Aminocyclobutyl)phenyl)-2-((2-hydroxyethyl)amino)-5-phenylfuro[2,3-d]pyrimidin-4(3H)-one]
19 | 100 to 1000 nM | 100 to 1000 nM | > 10000 nM | NC1(c2ccc(-c3oc4nc(NCCO)nc(NCCO)c4c3-c3ccccc3)cc2)CCC1 [Example 77, 2,2′-((6-(4-(1-Aminocyclobutyl)phenyl)-5-phenylfuro[2,3-d]pyrimidine-2,4-diyl)bis(azanediyl))diethanol]
20 | ≤ 100 nM | 100 to 1000 nM | > 10000 nM | COc1ncnc2oc(-c3ccc(C4(N)CCC4)cc3)c(-c3ccccc3)c12 [Example 78, 1-(4-(4-Methoxy-5-phenylfuro[2,3-d]pyrimidin-6-yl)phenyl)cyclobutanamine]
21 | 100 to 1000 nM | 1000 to 10000 nM | > 10000 nM | CNc1nc(NCCO)nc2oc(-c3ccc(C4(N)CCC4)cc3)c(-c3ccccc3)c12 [Example 79, 2-(6-(4-(1-Aminocyclobutyl)phenyl)-4-(methylamino)-5-phenylfuro[2,3-d]pyrimidin-2-ylamino)ethanol, HCl]
22 | 100 to 1000 nM | 1000 to 10000 nM | > 10000 nM | COc1ncc(Br)c2oc(-c3ccc(C4(N)CCC4)cc3)c(-c3ccccc3)c12 [Example 80, 1-(4-(7-Bromo-4-methoxy-3-phenylfuro[3,2-c]pyridin-2-yl)phenyl)cyclobutanamine]
23 | 100 to 1000 nM | 1000 to 10000 nM | > 10000 nM | CCNc1nc(NCCO)nc2oc(-c3ccc(C4(N)CCC4)cc3)c(-c3ccccc3)c12 [Example 81, 2-(6-(4-(1-Aminocyclobutyl)phenyl)-4-(ethylamino)-5-phenylfuro[2,3-d]pyrimidin-2-ylamino)ethanol, HCl]
24 | 100 to 1000 nM | 1000 to 10000 nM | 1000 to 10000 nM | Cn1c(N2CCOCC2)nc2oc(-c3ccc(C4(N)CCC4)cc3)c(-c3ccccc3)c2c1=O [Example 82, 6-(4-(1-Aminocyclobutyl)phenyl)-3-methyl-2-morpholino-5-phenylfuro[2,3-d]pyrimidin-4(3H)-one]
